According to patent EP1717234A1, “Phenoxypropylpiperidines and -pyrrolidines and their use as histamine H3-receptor ligands” (BIOPROJET, priority 2005, dated 2006):
Like-named read-outs stand apart in the source and are kept apart here.

Experiments:
CYP2D6 = CYP2D6 (Homo sapiens, UniProt P10635); assay: Cytochrome inhibition, fluorometric microtiter plate assay (substrate AMMC); type: biochemical
Text: (§1) Among the xenobiotic-metabolizing CYPs, five forms, CYP1A2, CYP2C9, CYP2C19, CYP2D6 and CYP3A4 appear to be the major CYP isoforms responsible for the oxidative metabolism of drugs or xenobiotics. Inhibition of CYP-mediated metabolism, often the mechanism for drug-drug interactions, can limit the use of a drug because of adverse clinical effects. The potential for CYP enzyme inhibition is routinely assessed by performing in vitro inhibition studies by measuring the rates of metabolism of a probe biotransformation in the presence and absence of test molecules. […] The incubation conditions for each cytochrome isoform were as follow: [table]

CYP3A4 = CYP3A4 (Homo sapiens, UniProt P08684); assay: Cytochrome inhibition, fluorometric microtiter plate assay (substrate BFC); type: biochemical
Text: as §1

[1] = target: human histamine H3 receptors (Homo sapiens, UniProt Q9Y5N1); assay: H3 binding ([125I]iodoproxyfan, membranes); settings: hH3 binding of the radioligand
Description: Membranes expressing human histamine H3 receptors were incubated 1 hour at room temperature in binding buffer containing 50 mM Na2HPO4/KH2PO4 pH 7.5 in a final volume of 200 µl. […] Non-specific binding was determined in the presence of 1 µM lmetit. The reaction was stopped by rapid filtration through GF/B filters (pre-soaked for 2 hours with 0.3% polyethyleneimine) followed by 3 ice cold binding buffer washes. The filter-bound radioactivity was measured in a liquid scintillation counter with 50µl of scintillation fluid.

[2] = compounds of the invention, human recombinant CYP2D6
[3] = compounds of the invention, human recombinant CYP3A4

Chain of CYP3A4 (P08684 whole entry): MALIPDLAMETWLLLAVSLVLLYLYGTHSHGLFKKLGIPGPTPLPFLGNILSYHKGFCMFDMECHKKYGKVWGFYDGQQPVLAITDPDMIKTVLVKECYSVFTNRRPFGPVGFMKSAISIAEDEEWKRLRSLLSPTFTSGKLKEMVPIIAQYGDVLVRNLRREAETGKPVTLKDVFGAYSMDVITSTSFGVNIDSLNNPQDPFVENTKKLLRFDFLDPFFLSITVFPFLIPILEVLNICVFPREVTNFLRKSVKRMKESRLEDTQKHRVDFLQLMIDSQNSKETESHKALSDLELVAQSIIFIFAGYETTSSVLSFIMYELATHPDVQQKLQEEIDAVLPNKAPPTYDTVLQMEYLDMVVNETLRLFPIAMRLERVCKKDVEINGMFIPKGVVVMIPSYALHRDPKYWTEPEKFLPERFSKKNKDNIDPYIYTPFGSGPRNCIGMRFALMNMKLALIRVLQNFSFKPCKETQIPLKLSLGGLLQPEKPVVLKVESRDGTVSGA
Chain of CYP2D6 (P10635 whole entry, canonical isoform): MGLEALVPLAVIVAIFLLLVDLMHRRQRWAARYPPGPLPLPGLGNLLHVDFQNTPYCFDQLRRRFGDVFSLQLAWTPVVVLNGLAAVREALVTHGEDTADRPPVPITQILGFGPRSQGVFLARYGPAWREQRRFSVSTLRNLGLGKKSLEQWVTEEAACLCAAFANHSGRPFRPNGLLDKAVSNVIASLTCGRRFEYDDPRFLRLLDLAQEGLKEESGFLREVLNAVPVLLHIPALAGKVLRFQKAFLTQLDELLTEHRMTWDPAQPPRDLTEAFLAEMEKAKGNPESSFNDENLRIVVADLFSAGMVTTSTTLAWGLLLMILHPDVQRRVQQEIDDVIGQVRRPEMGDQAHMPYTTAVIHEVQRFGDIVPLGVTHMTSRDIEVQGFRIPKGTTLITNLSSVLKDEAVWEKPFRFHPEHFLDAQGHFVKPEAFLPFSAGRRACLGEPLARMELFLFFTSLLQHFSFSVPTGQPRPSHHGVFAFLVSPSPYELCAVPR
Chain of human histamine H3 receptors (Q9Y5N1 whole entry): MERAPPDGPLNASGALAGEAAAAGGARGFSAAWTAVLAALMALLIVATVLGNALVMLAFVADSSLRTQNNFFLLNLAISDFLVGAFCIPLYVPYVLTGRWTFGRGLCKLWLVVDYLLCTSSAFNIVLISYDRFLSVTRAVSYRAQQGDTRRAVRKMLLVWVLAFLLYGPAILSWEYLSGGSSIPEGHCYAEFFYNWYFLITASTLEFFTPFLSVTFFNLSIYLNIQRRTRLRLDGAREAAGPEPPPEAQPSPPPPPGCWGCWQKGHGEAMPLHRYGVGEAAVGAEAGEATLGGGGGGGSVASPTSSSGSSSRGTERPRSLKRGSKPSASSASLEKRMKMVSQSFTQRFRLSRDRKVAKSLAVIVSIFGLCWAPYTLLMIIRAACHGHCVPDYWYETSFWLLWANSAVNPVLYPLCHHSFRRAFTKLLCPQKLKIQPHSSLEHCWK

Row | SMILES | IC50 (CYP2D6; [2]) | IC50 (CYP3A4; [3]) | other results
1 | C[C@H]1C[C@H](C)CN(CCCOc2ccc(C(=O)N(C)C)cc2)C1 (relative stereo) [Example 1, trans-1-{3-[4-(N,N-dimethylcarbamoyl)phenoxy]propyl}-3,5-dimethylpiperidine] | > 100000 nM | – | –
2 | C[C@H]1C[C@H](C)CN(CCCOc2ccc(C3=NCCC3)cc2)C1 (relative stereo) [Example 17, trans-1-{3-[4-(4,5-dihydro-3H-pyrrol-2-yl)phenoxy]propyl}-3,5-dimethylpiperidine] | > 100000 nM | > 100000 nM | –
3 | Cc1ccc(-c2ccc(OCCCN3CCCCC3)cc2)cc1 [Example 24, 1-{3-[(4'-methylbiphenyl-4-yl)oxy]propyl}piperidine] | – | > 2000 nM | –
4 | Cc1cc(-c2ccc(OCCCN3CCC[C@H](C)C3)cc2)ccn1 [Example 59] | – | – | IC50 (CYP3A4; read-out: CYP3A4 (IC50, concentrations for 50% inhibition), comparative compounds of WO 00/06254): > 1000 nM; IC50 (CYP2D6; read-out: CYP2D6 (IC50, concentrations for 50% inhibition), comparative compounds of WO 00/06254): 1000 nM
5 | Ic1ccc(COCCCc2cnc[nH]2)cc1 [[^125]iodoproxyfan] | – | – | Kd [1]: 0.078 ± 0.006 nM
